The source of these data is ChEMBL document CHEMBL1141524 (Bioorg Med Chem Lett, 2008).

“And” between values parts separate entries of the source, which are not always exact repeats. Equal entries are not always repeated. Non-standard residues stand in square brackets, D forms with d. Residues, ends and D or L forms follow the SMILES beside them. Gly(N-4-hydroxybenzyl) = O=C(O)CNCc1ccc(O)cc1

A short description of the experiment: Displacement of [3H]neurotensin from pig NTR1. Also noted: species or system Sus scrofa. A general note: Displacement assays read how much labelled ligand stays bound in the presence of the test substance.
In general, Ki refers to a measure of affinity in units of concentration, obtained from inhibition or displacement. Low values mean a stronger hold on the target, high ones a looser hold on the target. Molecule `CC[C@H](C)[C@H](NC(=O)[C@H](Cc1ccc(O)cc1)NC(=O)[C@@H]1CCCN1C(=O)[C@H](CCCNC(=N)N)NC(=O)CCC(=O)O)C(=O)N[C@@H](CC(C)C)C(=O)O` displayed a Ki of 2300 nM.

Consider H-RRAPYIL-OH, for which the affinity, expressed as Ki, was 9.6 nM.

On to `CC[C@H](C)[C@H](NC(=O)[C@H](Cc1ccc(O)cc1)NC(=O)[C@@H]1CCCN1C(=O)[C@H](CCCNC(=N)N)NC(=O)[C@@H](N)CCCNC(=N)N)C(=O)N[C@@H](CC(C)C)C(N)=O`, for which affinity was put at a Ki of 0.18 nM.

`CC[C@H](C)[C@H](NC(=O)[C@H](Cc1ccc(O)cc1)NC(=O)[C@@H]1CCCN1C(=O)CN(CCCCN)C(=O)[C@@H](N)CCCCN)C(=O)N[C@@H](CC(C)C)C(=O)O` returned a Ki of 5.7 nM.

For `CC[C@H](C)[C@H](NC(=O)[C@H](Cc1ccc(O)cc1)NC(=O)[C@@H]1CCCN1C(=O)[C@H](CCCCN)NC(=O)CNCCCCN)C(=O)N[C@@H](CC(C)C)C(=O)O`, the affinity, expressed as Ki, was 0.45 nM.

`CC[C@H](C)[C@H](NC(=O)[C@H](Cc1ccc(O)cc1)N1C(=O)NC(=O)C2(CCCN2C(=O)[C@H](CCCNC(=N)N)NC(=O)[C@@H](N)CCCNC(=N)N)C1=O)C(=O)N[C@@H](CC(C)C)C(=O)O` (some centres not stated): the Ki worked out at 10000 nM.

In turn, H-RRPYAIL-OH returned a Ki of 6.8 nM.

In the case of `CC[C@H](C)[C@H](NC(=O)CN(Cc1ccc(O)cc1)C(=O)[C@@H]1CCCN1C(=O)[C@H](CCCCN)NC(=O)[C@@H](N)CCCCN)C(=O)N[C@@H](CC(C)C)C(=O)O` (H-KKP[Gly(N-4-hydroxybenzyl)]IL-OH), the Ki was found to be 11000 nM.

With `CC[C@@H](C)[C@H](NC(=O)[C@H](Cc1ccc(O)cc1)N1CC=CC[C@]2(CCCN2C(=O)[C@H](CCCNC(=N)N)NC(=O)[C@@H](N)CCCNC(=N)N)C1=O)C(=O)N[C@@H](CC(C)C)C(=O)O`, the Ki was 18000 nM.

`CC[C@H](C)[C@H](NC(=O)[C@H](Cc1ccc(O)cc1)NC(=O)[C@@H]1CCCN1C(=O)[C@H](CCCCN)NC(=O)[C@@H](N)CCCCN)C(=O)N[C@@H](CC(C)C)C(=O)O` displayed a Ki of 2.6 nM.

Turning to H-DRPYIL-OH, affinity was put at a Ki of 150 nM.

`CC[C@H](C)[C@H](NC(=O)[C@H](Cc1ccc(O)cc1)N1C(=O)NC(=O)C2(CCCN2C(=O)[C@H](CCCNC(=N)N)NC(=O)[C@@H](N)CCCNC(=N)N)C1=O)C(=O)N[C@@H](CC(C)C)C(=O)O` (single isomer, unassigned; diastereomer 1) displayed a Ki of 1400 nM.

The molecule H-RRPYILA-OH gave a Ki of 0.27 nM.

For `CC[C@H](C)[C@H](NC(=O)[C@H](Cc1ccc(O)cc1)NC(=O)C[C@@H]1CCCN1C(=O)[C@H](CCCNC(=N)N)NC(=O)[C@@H](N)CCCNC(=N)N)C(=O)N[C@@H](CC(C)C)C(=O)O`, affinity was put at a Ki of 28 nM.

Turning to `CC[C@H](C)[C@H](NC(=O)[C@H](Cc1ccc(O)cc1)N1CC/C=C\C[C@H]2CCN(C(=O)[C@H](CCCNC(=N)N)NC(=O)[C@@H](N)CCCNC(=N)N)[C@@H]2C1=O)C(=O)N[C@@H](CC(C)C)C(=O)O`, the Ki was 2400 nM and 8600 nM.

With `CC[C@H](C)[C@H](NC(=O)[C@H](Cc1ccc(O)cc1)N1CC=C[C@]2(CCCN2C(=O)[C@H](CCCNC(=N)N)NC(=O)[C@@H](N)CCCNC(=N)N)C1=O)C(=O)N[C@@H](CC(C)C)C(=O)O`, affinity was put at a Ki of 7400 nM.

`CC[C@H](C)[C@H](NC(=O)[C@H](Cc1ccc(O)cc1)NC(=O)[C@@H]1CCCN1C(=O)[C@H](CCCNC(=N)N)NC(=O)C[N+](C)(C)C)C(=O)N[C@@H](CC(C)C)C(=O)O` had a Ki of 0.65 nM.
